{"source": "patent US8633245B2", "about": "“PAI-1 inhibitor” (Institute of Medicinal Molecular Design, Inc., priority 2008, dated 2014)", "key": {"[1]": {"test_system": "thrombus in AV shunt", "experiment": "Test Example 5: anti-thrombotic activity (rat AV shunt model)", "format": "in vivo", "settings": "mean ± S.E., n=5, vehicle 72.7 ± 2.7", "description": "AV shunt model using 7-week old male Crlj: CD (SD) rats were prepared, and anti thrombotic activities when the compounds according to the present invention were administered orally were examined.\nRequired amount of the test compounds were weighed and suspended by adding 0.5% CMC (carboxymethylcellulose)-Na solution little by little, and the solutions (10 mg/kg or 30 mg/kg solution) were prepared so that their final concentration became 2 mg/ml or 6 mg/ml using a graduated cylinder. 5 ml was prepared for 1 course.\nTo 7-week old Crlj: CD (SD) male rats, 5 ml/kg of vehicle (0.5% CMC-Na solution) or 5 ml/kg of the administering solution of the test compound (10 mg/kg or 30 mg/kg) were administered orally for 4 days. The administration on the 4th day was carried out about 1 hour before the following perfusion start.\nOn the connected part where the silk thread was through, parafilm was wrapped around to avoid blood leakage.\nRats were anesthetized with pentobarbital (50 mg/kg; intraperitoneally). Saline was filled in the above catheter, and each of the ends of the catheter was inserted in right carotid artery and left carotid artery, respectively, and blood was circulated. 30 minutes later, the catheter was pinched with forceps to stop blood flow, and tube parts where the silk thread was through were cut and removed. The silk thread was carefully removed from the tubes, remaining wet weight was weighed after removing the liquid phase with filter paper, and further subtraction of the weight of the silk thread, gave the thrombus weight.\nFor the thrombus weight in each group, an average value±standard error (S.E.) was calculated. For the significance test between the vehicle administered group and the compound according to the present invention administered group, Dunnett's multiple comparison was carried out (significance level 5%). For the test, the SAS System Release 8.2 (TS2M0) for Windows (Registered Trademark) (SAS Institute Inc.) and its cooperative system EXSAS Ver. 7.10 (Arm Systex Co. Ltd.) were employed."}, "[2]": {"target": "T1, recombinant human PAI-1 (Homo sapiens, UniProt P05121)", "T1 construct": "purchased Molecular Innovations, Inc", "T1 sequence (P05121 24-402)": "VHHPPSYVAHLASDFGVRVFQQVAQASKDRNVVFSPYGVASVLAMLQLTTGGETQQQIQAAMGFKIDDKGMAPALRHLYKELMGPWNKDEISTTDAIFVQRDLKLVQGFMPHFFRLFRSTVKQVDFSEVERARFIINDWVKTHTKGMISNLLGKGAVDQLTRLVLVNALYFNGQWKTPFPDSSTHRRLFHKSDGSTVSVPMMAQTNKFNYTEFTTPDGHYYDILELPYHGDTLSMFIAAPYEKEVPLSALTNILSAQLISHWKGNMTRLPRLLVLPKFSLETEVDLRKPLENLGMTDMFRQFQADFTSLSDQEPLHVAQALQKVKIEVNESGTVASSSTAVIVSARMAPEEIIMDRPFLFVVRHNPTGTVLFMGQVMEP", "experiment": "Test Example 1: human PAI-1 inhibitory activity (tPA fluorogenic substrate, pH 7.5 Tris buffer)", "format": "biochemical", "settings": "Tris buffer", "description": "50 mM Tris, 150 mM NaCl, 10 μg/ml BSA, 0.01% Tween80 (SIGMA-ALDRICH Corporation)"}, "[3]": {"target": "T2, recombinant rat PAI-1 (Rattus norvegicus, UniProt P20961)", "T2 construct": "purchased Molecular Innovations, Inc", "T2 sequence (P20961 24-402)": "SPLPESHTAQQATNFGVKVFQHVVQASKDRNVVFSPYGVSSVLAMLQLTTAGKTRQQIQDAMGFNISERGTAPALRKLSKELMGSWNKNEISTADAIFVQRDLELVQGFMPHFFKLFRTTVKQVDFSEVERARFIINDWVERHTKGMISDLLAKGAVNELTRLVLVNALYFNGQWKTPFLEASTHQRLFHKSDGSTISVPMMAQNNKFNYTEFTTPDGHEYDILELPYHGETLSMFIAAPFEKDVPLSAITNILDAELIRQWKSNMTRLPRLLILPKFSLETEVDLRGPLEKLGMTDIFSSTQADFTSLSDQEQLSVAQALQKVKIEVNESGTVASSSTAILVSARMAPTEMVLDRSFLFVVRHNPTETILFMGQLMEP", "experiment": "Test Example 3: rat PAI-1 inhibitory activity (as Test Example 2 with rat PAI-1)", "format": "biochemical", "settings": "rat PAI-1; for IC50: calculated from the inhibition rates", "quoted_text": "To this solution, 6 μl of 80 nM recombinant human PAI-1 (Molecular Innovations, Inc.) solution prepared with Tris buffer was added, and the plate was incubated for 5 minutes at room temperature. Furthermore, 30 μl of 800 IU/ml two-chain tPA (Activity Standard; American diagnostica, inc.) prepared with Tris buffer was added, and the mixed solution was incubated for 15 minutes at room temperature. Then, 30 μl of 400 μM fluorogenic substrate (Pyr-Gly-Arg-MCA; Peptide Institute, Inc.) for tPA prepared with Tris buffer was added and reacted for 30 minutes at room temperature."}, "[4]": {"target": "T1, recombinant human PAI-1", "experiment": "Test Example 4: human PAI-1 inhibitory activity (amount of PAI-1 bound to plate-coated tPA, ELISA)", "format": "binding", "settings": "read-out: Inhibition Rate of PAI-1 Activity (%)", "description": "100 μl of tPA solution, where one-chain recombinant tPA (hereinafter referred to as tPA; American diagnostica, inc.) had been diluted with Buffer A to achieve a concentration of 10 μg/ml, was added to each well of a 96-well plate (Nunc Maxisorp), and the plate was incubated for one night at 4° C. to be coated with tPA. Then, after suction of tPA solution from the 96-well plate, the plate was rinsed successively with Buffer A and Buffer B.\nTo Buffer B, solutions of the compound according to the present invention dissolved with DMSO (final DMSO concentration: 0.2%) and recombinant human PAI-1 (Molecular Innovations, Inc.) were added. The mixtures were blended so that the final concentrations would be 0.1 to 3.0 μM and 50 ng/ml respectively, and were incubated for 15 minutes on ice. These mixed solutions were added to the rinsed 96-well plate at 100 μl/well, and incubated for 60 minutes at room temperature. To prepare a calibration curve, PAI-1 solutions without the compound according to the present invention (solutions where the final concentrations being 100, 50, 25, 12.5, 6.25, 3.13, or 1.56 ng/ml PAI-1) were added at 100 μl/well, and the plate was incubated for 60 minutes at room temperature, as standard.\nAfter incubation, the reaction mixture was removed by suction, and each well was rinsed with Wash Buffer. Next, anti-human PAI-1 monoclonal antibody (PROGEN Inc.) diluted with Buffer C to be 3.0 μg/ml was added to the 96-well plate at 100 μl/well, and the plate was incubated for 1 hour at room temperature. After rinsing each well with Wash Buffer, alkaline phosphatase-labeled goat anti-mouse IgG (H+L) (Jackson ImmunoResearch, Inc.) diluted with Buffer D to be 0.12 μg/ml was added at 100 μl/well, and the plate was incubated for 1 hour at room temperature. After rinsing each well with Wash Buffer, 1.0 mg/ml p-Nitrophenyl Phosphate (SIGMA) was added to the 96-well plate at 100 μl/well to start the reaction. After 30 to 60 minutes, 25 μl of 0.5 N NaOH was added to stop the reaction, and the absorbance was measured at 405 nm using a multiplate reader (GENios; TECAN G.M.B.H.). Based on the calibration curve prepared from the standard wells, amounts of PAI-1 bound to tPA in the wells that had been treated with the compound according to the present invention were calculated, and the PAI-1 inhibition rates by the compounds according to the present invention were obtained by the following equation. [PAI-1 Inhibition Rate (%)]=[1−(amount of PAI-1 bound to tPA on the well by treatment with the compound according to the present invention)/(amount of PAI-1 bound to tPA on the well by treatment with PAI-1 solution not including the compound according to the present invention (solution having the final concentration of 50 ng/ml PAI-1)]×100"}, "[5]": {"target": "T1, recombinant human PAI-1", "experiment": "Test Example 2: human PAI-1 inhibitory activity (tPA fluorogenic substrate, pH 7.4 HEPES buffer)", "format": "biochemical", "settings": "for IC50: human PAI-1, calculated from the inhibition rates", "description": "0.1 M HEPES, 0.1 M NaCl. 1 mM EDTA. 0.1% Polyethylene glycol 8,000 (Hampton Research Corporation),\n2 mM Dimethyldecylphoshine oxide [Apo-10] (Fluka Corporation)"}}}
{"smiles": "CC(C)(C)c1ccc(COc2ccc(-c3ccc(OC(F)(F)F)cc3)cc2CCC(=O)O)cc1", "note": "[Compound 5]", "values": [{"measurement": "Thrombus Weight", "setting": "[1]; 10 mg/kg/day orally for 4 days", "result": "57.5 ± 5.0", "unit": "mg"}]}
{"smiles": "CN(C(=O)C(=O)O)c1cc(-c2ccc(OC(F)(F)F)cc2)ccc1OCc1ccc(C(C)(C)C)cc1", "note": "[Compound 17]", "values": [{"measurement": "Inhibition Rate of PAI-1 Activity (%)", "setting": "[2]; Compound Concentration 5 μM", "result": 37, "unit": "%"}, {"measurement": "Inhibition Rate of PAI-1 Activity (%)", "setting": "[2]; Compound Concentration 10 μM", "result": 67, "unit": "%"}, {"measurement": "Inhibition Rate of PAI-1 Activity (%)", "setting": "[2]; Compound Concentration 25 μM", "result": 97, "unit": "%"}, {"measurement": "Thrombus Weight", "setting": "[1]; 30 mg/kg/day orally for 4 days", "result": "60.4 ± 3.8", "unit": "mg"}]}
{"smiles": "O=C(O)CCc1cc(-c2ccc(OC(F)(F)F)cc2)ccc1OCCCCc1ccccc1", "note": "[Compound 102]", "values": [{"measurement": "IC50", "setting": "[3]", "result": 2750, "unit": "nM"}, {"measurement": "inhibition at 1 µM", "setting": "[4]", "result": 0, "unit": "%"}, {"measurement": "IC50", "setting": "[5]", "result": 1320, "unit": "nM"}]}
{"smiles": "CC(C)(C)c1ccc(CN(C(=O)C(=O)O)c2ccc(-c3ccc(OC(F)(F)F)cc3)cc2)cc1", "note": "[Compound 129]", "values": [{"measurement": "Thrombus Weight", "setting": "[1]; 10 mg/kg/day orally for 4 days", "result": "56.7 ± 3.8", "unit": "mg"}]}
{"smiles": "CCN(CC)c1ccc(N(Cc2ccc(C(C)(C)C)cc2)C(=O)C(=O)O)c(-c2ccc(OC(F)(F)F)cc2)c1", "note": "[Compound 208]", "values": [{"measurement": "inhibition at 1 µM", "setting": "[4]", "result": 13, "unit": "%"}]}
{"smiles": "CCC(CC)Oc1ccc(-c2ccc(OC(F)(F)F)cc2)cc1N(CCCc1ccccc1)C(=O)C(=O)O", "note": "[Compound 233]", "values": [{"measurement": "IC50", "setting": "[3]", "result": 1460, "unit": "nM"}, {"measurement": "inhibition at 0.3 µM", "setting": "[3]; compound concentration 0.3 μM, read-out: Inhibition Rate of PAI-1 Activity (%)", "result": 4, "unit": "%"}, {"measurement": "inhibition at 1 µM", "setting": "[3]; compound concentration 1 μM, read-out: Inhibition Rate of PAI-1 Activity (%)", "result": 20, "unit": "%"}, {"measurement": "inhibition at 3 µM", "setting": "[3]; compound concentration 3 μM, read-out: Inhibition Rate of PAI-1 Activity (%)", "result": 93, "unit": "%"}, {"measurement": "inhibition at 10 µM", "setting": "[3]; compound concentration 10 μM, read-out: Inhibition Rate of PAI-1 Activity (%)", "result": "> 99", "unit": "%"}, {"measurement": "inhibition at […]", "setting": "[2]; Compound Concentration 2.5 μM, read-out: Inhibition Rate of PAI-1 Activity (%)", "result": 49, "unit": "%"}, {"measurement": "inhibition at 5 µM", "setting": "[2]; Compound Concentration 5 μM, read-out: Inhibition Rate of PAI-1 Activity (%)", "result": 78, "unit": "%"}, {"measurement": "inhibition at 10 µM", "setting": "[2]; Compound Concentration 10 μM, read-out: Inhibition Rate of PAI-1 Activity (%)", "result": 93, "unit": "%"}, {"measurement": "inhibition at 0.3 µM", "setting": "[4]; Compound Concentration 0.3 μM", "result": 13, "unit": "%"}, {"measurement": "inhibition at 1 µM", "setting": "[4]; Compound Concentration 1 μM", "result": 28, "unit": "%"}, {"measurement": "inhibition at 3 µM", "setting": "[4]; Compound Concentration 3 μM", "result": 50, "unit": "%"}, {"measurement": "inhibition at 0.1 µM", "setting": "[5]; Compound Concentration 0.1 μM, HEPES buffer, read-out: Inhibition Rate of PAI-1 Activity (%)", "result": 0, "unit": "%"}, {"measurement": "inhibition at 0.3 µM", "setting": "[5]; Compound Concentration 0.3 μM, HEPES buffer, read-out: Inhibition Rate of PAI-1 Activity (%)", "result": 9, "unit": "%"}, {"measurement": "inhibition at 1 µM", "setting": "[5]; Compound Concentration 1 μM, HEPES buffer, read-out: Inhibition Rate of PAI-1 Activity (%)", "result": 55, "unit": "%"}, {"measurement": "inhibition at 3 µM", "setting": "[5]; Compound Concentration 3 μM, HEPES buffer, read-out: Inhibition Rate of PAI-1 Activity (%)", "result": 97, "unit": "%"}, {"measurement": "IC50", "setting": "[5]", "result": 900, "unit": "nM"}]}
